{
  "source": "patent US9355826B2",
  "about": "“Method for imaging mass analysis using physical vapor deposition of platinum nanoparticles” (priority 2012, dated 2016)",
  "assay": "IMS visualization of permeation and distribution of acephate in ivy after scattering a grain type agricultural chemical on the soil",
  "type": "in vivo",
  "conditions": "for mass spectrum of collected leaves (peaks originating from acephate): FIG. 32; for distribution of acephate on leaf (peak at m/z=206): FIG. 33; for distribution of acephate in stem (peak at m/z=206): ivy stems collected 4 days later, FIG. 34",
  "description": "A grain type pesticide agricultural chemical for horticulture was scattered on soil in which ivy was planted. 4, 8, 11, and 14 days later, leaves at about 30 mm from the soil were collected, and platinum nanoparticles were vapor deposited using a magnetron sputtering device to a thickness of 10 nm, thereby preparing samples. The grain type agricultural chemical that was used contained acephate as an active component.\nEach sample was measured by IMS. Also, for the stems that were collected 4 days later, the lower stem and the upper stem, which were respectively close to and far from the root, were measured by IMS under the same conditions.\nThe measurement conditions of IMS are shown below.\nIrradiation laser: Nd:YAG laser (355 nm)\nAccelerating voltage: 19 kV\nReflectron voltage: 21 kV\nLaser radius: about 100 μm (ultra mode)\nMeasurement interval: 150 μm",
  "data": [
    {"molecule": "COP(=O)(NC(C)=O)SC", "note": "(centres unmarked) [acephate]", "values": [
      {"measurement": "mass spectrum of collected leaves (peaks originating from acephate)", "setting": "ivy leaves at about 30 mm from the soil, collected 4 days after scattering on soil", "result": "only the peaks of the wax layer were observed"},
      {"measurement": "distribution of acephate on leaf (peak at m/z=206)", "setting": "ivy leaves collected 4 days later", "result": "not observed"},
      {"measurement": "distribution of acephate on leaf (peak at m/z=206)", "setting": "ivy leaves collected 8 days later", "result": "observed at the base of the leaves"},
      {"measurement": "mass spectrum of collected leaves (peaks originating from acephate)", "setting": "ivy leaves collected 11 days after scattering on soil", "result": "peaks originating from acephate were observed"},
      {"measurement": "distribution of acephate on leaf (peak at m/z=206)", "setting": "ivy leaves collected 11 days later", "result": "observed spreading to the tips of the leaves"},
      {"measurement": "distribution of acephate on leaf (peak at m/z=206)", "setting": "ivy leaves collected 14 days later", "result": "observed spreading to the tips of the leaves"},
      {"measurement": "distribution of acephate in stem (peak at m/z=206)", "setting": "lower stem close to the soil", "result": "strong peak of acephate was observed in the lower side of the lower stem"},
      {"measurement": "distribution of acephate in stem (peak at m/z=206)", "setting": "moving upward along the stem", "result": "gradual weakening of the acephate peak"}
    ]}
  ]
}
